Source: patent publication US8975264B2, “Compound acting as a cannabinoid receptor-1 inhibitor” (Amorepacific Corporation, priority 2010, dated 2015)

These molecules were tested against human CB1 (cannabinoid receptor 1) (Homo sapiens, UniProt P21554) (assay: CB1 receptor inhibition effect: calcium ion influx assay (Fluo-4 NW) in Chem-1 cells after 1 μM R-(+)-WIN55212-2). Conditions: calcium ion influx in Chem-1 cells expressing human CB1, 1 μM R-(+)-WIN55212-2.
Assay type: cell-based
Method: When cells in which the cannabinoid receptor 1 (CB1) is stably expressed are treated with a CB1 receptor agonist, the CB1 receptor is activated and influx of calcium ions into the cells increases. CB1 receptor inhibition effect of a test compound can be evaluated by measuring the degree of calcium influx inhibition after treating with the test compound.
First, Chem-1 cells (Chemicon International, #HTS019C) in which human CB1 cDNA is expressed stably were seeded onto a 96-well cell culture plate at a density of ˜50,000 cells/well and incubated overnight in a 5% CO2 incubator at 37° C. The next day, the culture medium was discarded and the cells were cautiously washed once using an assay buffer (HBSS containing 20 mM HEPES and 2.5 mM probenecid) with 200 μL/well. Calcium ion influx was measured using an assay kit (Fluo-4 NW calcium assay kit: Molecular Probes™, #F36206) according to the manufacturer's instructions. The compounds of Examples of desired concentration to be measured were comprised to 0.5% DMSO. For control, only 0.5% DMSO was used without the compounds of Examples. Reaction time was 10 minutes. After treating the Chem-1 cells stably expressing the CB1 receptor with 1 μM R-(+)-WIN55212-2 (Sigma, #W102), a CB1 receptor agonist, calcium ion (Ca^2+) flux induced thereby was measured for 80 seconds using Flex Station 3 (Molecular Device, USA).
The difference in calcium ion concentration of the cells treated with the compounds of Examples or those treated with 1 μM R-(+)-WIN55212-2 was obtained from the difference of the maximum and minimum values during the 80 seconds. Then, % inhibition of the compounds for the CB1 receptor was calculated using the following equation. % inhibition={1−(ΔRFUcompound−ΔRFUBlank)/(ΔRFUControl−ΔRFUBlank)}×100 [Equation]
ΔRFU: maximum relative fluorescence units−minimum relative fluorescence units
ΔRFUCompound: difference in maximum and minimum RFUs in the well where the compounds of Examples dissolved in DMSO to a final concentration of 0.5% and 1 μM R-(+)-WIN55212-2 dissolved in DMSO to a final concentration of 0.5% were added
ΔRFUBlank: difference in maximum and minimum RFUs in the well to which only 1% DMSO was added
ΔRFUControl: difference in maximum and minimum RFUs in the well where 0.5% DMSO and 1 μM R-(+)-WIN55212-2 dissolved in DMSO to a final concentration of 0.5% were added

Sequence of human CB1 (cannabinoid receptor 1) (P21554 whole entry): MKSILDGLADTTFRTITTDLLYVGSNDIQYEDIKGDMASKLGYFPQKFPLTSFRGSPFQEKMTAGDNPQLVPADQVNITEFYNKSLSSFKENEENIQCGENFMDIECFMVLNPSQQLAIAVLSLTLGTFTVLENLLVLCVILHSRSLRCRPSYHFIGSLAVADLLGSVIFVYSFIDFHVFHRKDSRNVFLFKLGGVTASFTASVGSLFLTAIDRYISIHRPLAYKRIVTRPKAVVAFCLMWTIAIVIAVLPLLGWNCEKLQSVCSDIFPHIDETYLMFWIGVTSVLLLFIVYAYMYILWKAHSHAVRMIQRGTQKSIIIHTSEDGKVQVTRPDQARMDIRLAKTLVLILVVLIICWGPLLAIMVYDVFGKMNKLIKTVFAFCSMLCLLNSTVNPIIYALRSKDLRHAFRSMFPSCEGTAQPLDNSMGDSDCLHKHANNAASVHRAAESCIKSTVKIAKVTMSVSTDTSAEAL

Row | Structure (SMILES) | IC50 [nM]
1 | Cc1nn2c(-c3ccc(F)cc3)cc(N3CCC[C@H]3CO)nc2c1-c1ccc(OC(F)(F)F)cc1 [Example 84] | 530
2 | COCc1nn2c(-c3cccc(OC)c3)cc(N3CCC[C@H]3CO)nc2c1-c1ccc(OC)cc1 [Example 226] | 50
3 | CCOc1ccc(-c2c(C)nn3c(-c4ccc(F)c(F)c4)cc(N4CCC[C@H]4CO)nc23)cc1 [Example 48, (S)-{1-[7-(3,4-difluorophenyl)-3-(4-ethoxyphenyl)-2-methylpyrazolo[1,5-a]pyrimidin-5-yl)pyrrolidin-2-yl)methanol] | 180
4 | Cc1nn2c(-c3ccc(F)cc3)cc(N3CCC[C@H]3CO)nc2c1-c1ccc(F)cc1F [Example 77] | 350
5 | Cc1ccc(-c2c(C)nn3c(-c4ccc(F)cc4)cc(N4CCC[C@H]4CO)nc23)cc1 [Example 63, (S)-(1-(3-(4-methylphenyl)-7-(4-fluorophenyl)-2-methylpyrazolo[1,5-a]pyrimidin-5-yl)pyrrolidin-2-yl)methanol] | 41
6 | Cc1nn2c(-c3cccc(C(F)(F)F)c3)cc(N3CCC[C@H]3CO)nc2c1-c1ccc(F)cc1 [Example 139] | 140
7 | CCCCc1nn2c(-c3cccc(C(F)(F)F)c3)cc(N3CCC[C@H]3CO)nc2c1-c1ccc(C)cc1 [Example 288] | 8
8 | CCOCc1nn2c(-c3cccc(F)c3)cc(N(C)CCO)nc2c1-c1ccc(Cl)cc1 [Example 243] | 7
9 | COc1cccc(-c2cc(N3CCC[C@H]3CO)nc3c(-c4ccc(F)cc4F)c(C)nn23)c1 [Example 190] | 180
10 | COCc1nn2c(-c3cccc(F)c3)cc(N(C)CCO)nc2c1-c1ccc(Cl)cc1 [Example 261] | 9
11 | CCCOc1ccc(-c2c(C)nn3c(-c4cccc(F)c4)cc(N4CCC[C@H]4CO)nc23)cc1 [Example 119] | 450
12 | Cc1cccc(-c2cc(N3CCC[C@H]3CO)nc3c(-c4ccc(OC(F)(F)F)cc4)c(C)nn23)c1 [Example 168] | 450
13 | CCOCc1nn2c(-c3cccc(Cl)c3)cc(N3CCC[C@H]3CO)nc2c1-c1ccc2c(c1)OCO2 [Example 217] | 150
14 | Cc1cccc(-c2cc(N3CCC[C@H]3CO)nc3c(-c4ccc5c(c4)OCO5)c(C)nn23)c1 [Example 159] | 200
15 | COCc1nn2c(-c3ccc(F)cc3)cc(N(C)CCO)nc2c1-c1ccc(Cl)cc1 [Example 260] | 7
16 | Cc1nn2c(-c3ccc(F)cc3)cc(N3CCC[C@H]3CO)nc2c1-c1ccc(Cl)c(Cl)c1 [Example 96] | 310
17 | COCc1nn2c(-c3cccc(C)c3)cc(N3CCC[C@H]3CO)nc2c1-c1ccc(Cl)cc1 [Example 234] | 15
18 | COc1cccc(-c2cc(N3CCC[C@H]3CO)nc3c(-c4ccc(C(F)F)cc4)c(C)nn23)c1 [Example 178] | 120
19 | COc1ccc(-c2c(C)nn3c(-c4ccc(F)cc4)cc(N4CCC[C@H]4CO)nc23)cc1 [Example 64, (S)-(1-(3-(4-methoxyphenyl)-7-(4-fluorophenyl)-2-methylpyrazolo[1,5-a]pyrimidin-5-yl)pyrrolidin-2-yl)methanol] | 170
20 | CCOc1ccc(-c2c(C)nn3c(-c4cccc(OC)c4)cc(N4CCC[C@H]4CO)nc23)cc1 [Example 51] | 250
21 | COc1ccc(-c2c(C)nn3c(-c4cccc(C(F)(F)F)c4)cc(N4CCC[C@H]4CO)nc23)cc1 [Example 123] | 76
22 | CCCCc1nn2c(-c3cccc(C)c3)cc(N3CCC[C@H]3CO)nc2c1-c1ccc(C)cc1 [Example 289] | 30
23 | CCOCc1nn2c(-c3ccc(F)cc3)cc(N(C)CCO)nc2c1-c1ccc(C)cc1 [Example 239, 2-{[2-ethoxymethyl-7-(4-fluorophenyl)-3-(4-methylphenyl)-pyrazolo[1,5-a]pyrimidin-5-yl]methylamino}ethanol] | 28
24 | CCOCc1nn2c(-c3cccc(F)c3)cc(N3CCC[C@H]3CO)nc2c1-c1ccc(OC)cc1 [Example 210] | 170
25 | CCCc1ccc(-c2c(C)nn3c(-c4ccc(F)cc4)cc(N4CCC[C@H]4CO)nc23)cc1 [Example 72] | 350
26 | COc1ccc(-c2c(C)nn3c(-c4ccc(OC)cc4)cc(N4CCC[C@H]4CO)nc23)cc1 [Example 40] | 350
27 | CCc1ccc(-c2c(C)nn3c(-c4ccc(C)cc4)cc(N4CCC[C@H]4CO)nc23)cc1 [Example 182] | 310

Row | Structure (SMILES) | IC50 [nM]
28 | Cc1nn2c(-c3cccc(F)c3)cc(N3CCC[C@H]3CO)nc2c1-c1ccc2c(c1)OCO2 [Example 113] | 49
29 | CCOCc1nn2c(-c3ccc(F)cc3)cc(N(C)CCO)nc2c1-c1ccc(OC)cc1 [Example 245] | 440
30 | Cc1cccc(-c2cc(N3CCC[C@H]3CO)nc3c(-c4ccc(Cl)cc4)c(C)nn23)c1 [Example 12] | 210
31 | Cc1ccc(-c2c(C)nn3c(-c4cccc(C(F)(F)F)c4)cc(N4CCC[C@H]4CO)nc23)cc1 [Example 122] | 45
32 | Cc1nn2c(-c3ccc(F)cc3)cc(N3CCC[C@H]3CO)nc2c1-c1ccc2c(c1)OCO2 [Example 66] | 140
33 | CCOCc1nn2c(-c3cccc(C(F)(F)F)c3)cc(N(C)CCO)nc2c1-c1ccc(C)cc1 [Example 241] | 10
34 | Cc1nn2c(-c3ccc(F)cc3F)cc(N3CCC[C@H]3CO)nc2c1-c1ccc(Cl)cc1 [Example 22] | 110
35 | C=Cc1ccc(-c2c(C)nn3c(-c4ccc(F)cc4)cc(N4CCC[C@H]4CO)nc23)cc1 [Example 71] | 210
36 | Cc1ccc(-c2c(C)nn3c(-c4cccc(Cl)c4)cc(N4CCC[C@H]4CO)nc23)cc1F [Example 176] | 270
37 | CCc1ccc(-c2c(C)nn3c(-c4cccc(Cl)c4)cc(N4CCC[C@H]4CO)nc23)cc1 [Example 174] | 220
38 | COc1cccc(-c2cc(N3CCC[C@H]3CO)nc3c(-c4ccc(C)cc4)c(C)nn23)c1 [Example 25, (S)-(1-(3-(4-methylphenyl)-7-(3-methoxyphenyl)-2-methylpyrazolo[1,5-a]pyrimidin-5-yl)pyrrolidin-2-yl)methanol] | 39
39 | OC[C@@H]1CCCN1c1cc(-c2cccc(C(F)(F)F)c2)n2ncc(-c3ccc(F)cc3)c2n1 [Example 276] | 340
40 | CCOCc1nn2c(-c3cccc(F)c3)cc(N3CCC[C@H]3CO)nc2c1-c1ccc2c(c1)OCO2 [Example 214] | 80
41 | Cc1ccc(-c2c(C)nn3c(-c4ccc(F)c(Cl)c4)cc(N4CCC[C@H]4CO)nc23)cc1 [Example 36] | 100
42 | CSc1ccc(-c2c(C)nn3c(-c4ccc(F)cc4)cc(N4CCC[C@H]4CO)nc23)cc1 [Example 68] | 170
43 | Cc1cccc(-c2cc(N3CCC[C@H]3CO)nc3c(-c4ccc(C(F)(F)F)cc4)c(C)nn23)c1 [Example 163] | 260
44 | Cc1ccc(-c2c(C)nn3c(-c4cccc(C(F)(F)F)c4)cc(N4CCC[C@H]4CO)nc23)cc1F [Example 137] | 90
45 | Cc1nn2c(-c3cc(F)cc(F)c3)cc(N3CCC[C@H]3CO)nc2c1-c1ccc2c(c1)OCO2 [Example 62, (S)-(1-(3-(3,4-methylenedioxyphenyl)-7-(3,5-difluorophenyl)-2-methylpyrazolo[1,5-a]pyrimidin-5-yl)pyrrolidin-2-yl)methanol] | 70
46 | COc1ccc(-c2c(C)nn3c(-c4ccc(Cl)cc4)cc(N4CCC[C@H]4CO)nc23)cc1 [Example 44] | 160
47 | Cc1cccc(-c2cc(N3CCC[C@H]3CO)nc3c(-c4ccc(F)cc4)c(C)nn23)c1 [Example 167] | 250
48 | Cc1nn2c(-c3cccc(F)c3)cc(N3CCC[C@H]3CO)nc2c1-c1ccc(C(F)(F)F)cc1 [Example 115] | 140
49 | COCc1nn2c(-c3cccc(C)c3)cc(N3CCC[C@H]3CO)nc2c1-c1ccc(OC)cc1 [Example 227] | 48
50 | Cc1nn2c(-c3cccc(C(F)(F)F)c3)cc(N3CCC[C@H]3CO)nc2c1-c1ccc(C(F)(F)F)cc1 [Example 128] | 66
51 | Cc1nn2c(-c3cccc(Cl)c3)cc(N3CCC[C@H]3CO)nc2c1-c1ccc2c(c1)OCO2 [Example 172] | 190
52 | COc1ccc(-c2c(C)nn3c(-c4cccc(Cl)c4)cc(N4CCC[C@H]4CO)nc23)cc1 [Example 169, (S)-(1-(3-(4-methoxyphenyl)-7-(3-chlorophenyl)-2-methylpyrazolo[1,5-a]pyrimidin-5-yl)pyrrolidin-2-yl)methanol] | 33
53 | COc1ccc(-c2c(C)nn3c(-c4ccccc4)cc(N4CCC[C@H]4CO)nc23)cc1 [Example 37, (S)-(1-(3-(4-methoxyphenyl)-7-phenyl-2-methylpyrazolo[1,5-a]pyrimidin-5-yl)pyrrolidin-2-yl)methanol] | 140
54 | CCOCc1nn2c(-c3cccc(F)c3)cc(N(C)CCO)nc2c1-c1ccc(C)cc1 [Example 240] | 10
